≈ marks a conversion by molar mass, not a printed value.
Assays:
[1] = test system: Vero cells (nontumor cells); test: Cytotoxicity on Vero cells (MTT); assay type: cell-based; conditions: 48 h incubation
Experimental: (§1) was further incubated for 1.5 h. The medium was then discarded and 100 µL 2-propanol/10 N HCl (250:1) was added in order to dissolve formazan granules. The absorbance at 570 nm was measured using a microplate reader (EL808, Bio-Tek Instruments Inc.) and cell viability was expressed as a percentage relative to the respective solvent control. VERO cells: VERO cells were seeded into 96-well microplates at 10^5 cells per mL in RPMI supplemented with 10% foetal calf serum.
After 24 h, the cells were washed and two microliters of two-fold serial dilutions of each compound (10 mg/mL) was added to 100 μL of medium. Cells were then incubated for 48 h at 37 ° C under a 5% CO2 atmosphere. At the end of incubation, 20 µL of MTT solution (5 mg/mL) was added to each well and further incubated for 4 h at 37 °C to allow the formation of formazan. The crystals of formazan were then dissolved with 100 µL of a freshly prepared solution of sodium dodecyl sulfate (SDS) 10% (15 mL) and HCl 1 N (150 µL). The optical density of each well was measured at 595 nm using a multiwell plate reader. The 50% inhibition concentration was then determined by curve fitting.
MMP assay: Human U-2 OS osteosarcoma cells (HTB-96) were obtained from the American Type Culture Collection (ATCC) and were cultured under the conditions recommended by the depositor. Cells from actively growing cultures were harvested and seeded at 8 × 10^3 cells per well in 96-well imaging plates (BD Falcon). After 1 d cells reached approximately 60% confluency and were treated with aurachin analogues at the assigned concentrations for 16 h. In addition, cells were stimulated with 1 µM FCCP [carbonyl cyanide 4-(trifluoromethoxy)phenylhydrazone] as a positive control 1 h prior to the measurement. For labeling, cells were washed twice with assay buffer ([…], 5.4 mM KCl, 2 mM MgCl2, 10 mM glucose, 2 mM CaCl2, 10 mM HEPES; pH 7.35) and 100 µL of a staining solution (50 nM TMRM,

bacterial cytochrome bd = test system: bacterial cytochrome bd; set-up: method as in PMID 7827023; conditions: cited from earlier work
[2] = Cytotoxicity, growth inhibition (MTT); assay type: cell-based, human; conditions: human, cell line not named at the place (Table 2: HCT-116 and K562); read-out: cytotoxic activity (IC50) on mammalian cell lines
Experimental: The cytotoxic activity of aurachin D (4) and analogues 9–11 and 17–19 was evaluated in growth inhibition experiments on mammalian cell lines (Table 2). After 5 days treatment, half inhibitory concentrations (IC50) were determined for human HCT-116 colon carcinoma and human K562 myelogenous leukemia cells. […]
as §1, with “VERO cells: VERO cells were seeded into 96-well microplates at 10^5 cells per mL in RPMI supplemented with 10% foetal calf serum.” left out

In the case of `CC(C)=CCC/C(C)=C/CC/C(C)=C/Cc1c(C)[nH]c2ccccc2c1=O` [compound 4, aurachin D], the IC50 [1] is listed as 13.8 µg/mL (≈ 38 µM) and the “inhibition of the cytochrome bd complex” value (bacterial cytochrome bd) is listed as “selectively inhibit”.

In the case of `CC(C)=CCC/C(C)=C/Cc1c(C)[nH]c2ccccc2c1=O` [compound 9], the melting point is reported as 187 to 189 °C.

Molecule `COc1ccc2[nH]c(C)c(CC=C(C)CCC=C(C)CCC=C(C)C)c(=O)c2c1` [compound 18] has an IC50 at 5 days [2] of ~1 µg/mL (≈ 2.54 µM).

In the case of `CC(C)=CCCC(C)=CCCC(C)=CCc1c(C)[nH]c2cc3c(cc2c1=O)OCO3` [compound 19], the IC50 [1] is reported as 4.4 µg/mL (≈ 10.8 µM) and the melting point is reported as 298 to 300 °C (dec.).
